Patent US12522594B2, “2-heteroaryl-3-oxo-2,3-dihydropyridazine-4-carboxamides for the treatment of cancer” (Deutsches Krebsforschungszentrum, priority 2017, dated 2026)

How the values were obtained:
[1] = biological target: T1, AHR (Homo sapiens, UniProt P35869); assay: In vitro assay 1: antagonism in human cell line (transactivation assay, U87 cells prestimulated with kynurenic acid, DRE firefly luciferase reporter); type: cell-based; design: host or cells: U87 glioblastoma cells, stably transfected with DRE firefly luciferase and renilla reporter constructs; conditions: 150 uM kynurenic acid, 20 hours, read-out: Assay 1: AHR-luc Hum Antagonism IC50
T1 sequence (P35869 11-848): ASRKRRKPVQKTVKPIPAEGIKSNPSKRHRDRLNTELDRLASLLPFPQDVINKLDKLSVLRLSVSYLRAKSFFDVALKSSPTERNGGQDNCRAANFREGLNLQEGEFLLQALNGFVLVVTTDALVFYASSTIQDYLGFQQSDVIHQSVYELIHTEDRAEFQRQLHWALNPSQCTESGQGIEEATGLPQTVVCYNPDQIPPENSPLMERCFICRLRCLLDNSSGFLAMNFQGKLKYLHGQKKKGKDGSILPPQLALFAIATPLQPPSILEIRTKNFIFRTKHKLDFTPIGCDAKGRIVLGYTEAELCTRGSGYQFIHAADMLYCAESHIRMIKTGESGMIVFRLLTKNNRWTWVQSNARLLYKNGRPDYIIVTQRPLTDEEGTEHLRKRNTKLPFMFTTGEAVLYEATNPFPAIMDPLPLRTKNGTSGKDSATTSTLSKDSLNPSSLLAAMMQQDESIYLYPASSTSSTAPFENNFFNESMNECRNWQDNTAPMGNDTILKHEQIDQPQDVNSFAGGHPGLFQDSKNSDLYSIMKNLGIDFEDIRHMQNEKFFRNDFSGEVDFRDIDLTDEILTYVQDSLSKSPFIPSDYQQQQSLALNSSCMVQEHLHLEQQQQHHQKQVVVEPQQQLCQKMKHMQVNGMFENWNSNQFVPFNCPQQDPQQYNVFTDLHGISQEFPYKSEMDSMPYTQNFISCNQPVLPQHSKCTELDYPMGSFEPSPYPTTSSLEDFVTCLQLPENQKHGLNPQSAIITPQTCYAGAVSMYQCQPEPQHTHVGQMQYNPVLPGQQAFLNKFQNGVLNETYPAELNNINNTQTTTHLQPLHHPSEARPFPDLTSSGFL
Outline: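 U87 glioblastoma cells with endogenous AHR, stably carrying a DRE-driven firefly luciferase reporter and a constitutive renilla reporter. Cells prestimulated with the AHR agonist kynurenic acid before compound addition; data normalized to positive and negative controls.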

[2] = biological target: T1, AHR; assay: In vitro assay 2: agonism in human cell line (transactivation assay, U87 cells, DRE firefly luciferase reporter); type: cell-based; design: host or cells: U87 glioblastoma cells, stably transfected with DRE firefly luciferase and renilla reporter constructs; conditions: no kynurenic acid, 20 hours, read-out: Assay 2: AHR-luc Hum Agonism IC50
Outline: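 U87 glioblastoma cells with endogenous AHR, stably carrying DRE-driven firefly luciferase and constitutive renilla reporters. 300 uM kynurenic acid served as positive activation control; data normalized to positive and negative controls.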

| SMILES | IC50 [1] [nM] | IC50 [2] [nM] |
| --- | --- | --- |
| O=C(NCC1(O)CC1)c1cc(-c2ccc(C(F)(F)F)cc2)nn(-c2cccnc2)c1=O [Example 188, N-[(1-Hydroxycyclopropyl)methyl]-3-oxo-2-(pyridin-3-yl)-6-[4-(trifluoromethyl)phenyl]-2,3-dihydropyridazine-4-carboxamide] | 12.5 | > 20000 |
| Cn1cc(-n2nc(-c3ccc(CF)cc3)cc(C(=O)NC[C@H](O)C(F)(F)F)c2=O)cn1 [Example 283, 6-[4-(Fluoromethyl)phenyl]-2-(1-methyl-1H-pyrazol-4-yl)-3-oxo-N-[(2S)-3,3,3-trifluoro-2-hydroxypropyl]-2,3-dihydropyridazine-4-carboxamide] | 430 | > 20000 |
| Cn1cc(-n2nc(-c3ccc(Cl)cc3)cc(C(=O)N[C@H]3CCC[C@@H]3O)c2=O)cn1 (relative stereo) [Example 51, 6-(4-Chlorophenyl)-N-[(trans)-2-hydroxycyclopentyl]-2-(1-methyl-1H-pyrazol-4-yl)-3-oxo-2,3-dihydropyridazine-4-carboxamide] | 9.54 | > 20000 |
| O=C(N[C@H](CO)C1CC1)c1cc(-c2ccc(Cl)cc2)nn(-c2cncc(F)c2)c1=O [Example 259, 6-(4-Chlorophenyl)-N-[(1S)-1-cyclopropyl-2-hydroxyethyl]-2-(5-fluoropyridin-3-yl)-3-oxo-2,3-dihydropyridazine-4-carboxamide] | 28.1 | > 20000 |
| C[C@@H](CO)NC(=O)c1cc(-c2ccc(Cl)cc2)nn(-c2cnn(C(F)F)c2)c1=O [Example 272, 6-(4-Chlorophenyl)-2-[1-(difluoromethyl)-1H-pyrazol-4-yl]-N-[(2S)-1-hydroxypropan-2-yl]-3-oxo-2,3-dihydropyridazine-4-carboxamide] | 91.1 | > 20000 |
| C[C@@H](NC(=O)c1cc(-c2ccc(C(F)(F)F)cc2)nn(-c2cnn(C)c2)c1=O)C(C)(C)O [Example 202, N-[(2R)-3-Hydroxy-3-methylbutan-2-yl]-2-(1-methyl-1H-pyrazol-4-yl)-3-oxo-6-[4-(trifluoromethyl)phenyl]-2,3-dihydropyridazine-4-carboxamide] | 0.825 | > 20000 |
| C[C@@H](CO)NC(=O)c1cc(-c2ccc(Cl)cc2)nn(-c2cn[nH]c2)c1=O [Example 190, (+)-6-(4-Chlorophenyl)-N-[(2S)-1-hydroxypropan-2-yl]-3-oxo-2-(1H-pyrazol-4-yl)-2,3-dihydropyridazine-4-carboxamide] | 65.6 | > 20000 |
| Cc1cncc(-n2nc(-c3ccc(Cl)cc3)cc(C(=O)N[C@@H](C)CO)c2=O)c1 [Example 304, 6-(4-Chlorophenyl)-N-[(2S)-1-hydroxypropan-2-yl]-2-(5-methylpyridin-3-yl)-3-oxo-2,3-dihydropyridazine-4-carboxamide] | 349 | > 20000 |
| O=C(NCC1(O)CCC1)c1cc(-c2ccc(Cl)cc2)nn(-c2cnsc2)c1=O [Example 200, 6-(4-Chlorophenyl)-N-[(1-hydroxycyclobutyl)methyl]-3-oxo-2-(1,2-thiazol-4-yl)-2,3-dihydropyridazine-4-carboxamide] | 0.734 | > 20000 |
| CC(C)(O)C(NC(=O)c1cc(-c2ccc(C(F)(F)F)cc2)nn(-c2cccnc2)c1=O)C(F)(F)F (stereo not shown) [Example 213, 3-Oxo-2-(pyridin-3-yl)-N-(1,1,1-trifluoro-3-hydroxy-3-methylbutan-2-yl)-6-[4-(trifluoromethyl)phenyl]-2,3-dihydropyridazine-4-carboxamide] | 1.92 | > 20000 |
| O=C(N[C@H]1COC[C@H]1O)c1cc(-c2ccc(C(F)F)nc2)nn(-c2cccnc2)c1=O (single isomer, unassigned) [Example 183, 6-[6-(Difluoromethyl)pyridin-3-yl]-N-[(cis)-4-hydroxytetrahydrofuran-3-yl]-3-oxo-2-(pyridin-3-yl)-2,3-dihydropyridazine-4-carboxamide] | 1970 | > 20000 |
| CC(C)(O)C(NC(=O)c1cc(-c2ccc(Cl)cc2)nn(-c2cccnc2)c1=O)C(F)(F)F (stereo not shown) [Example 121, 6-(4-Chlorophenyl)-3-oxo-2-(pyridin-3-yl)-N-(1,1,1-trifluoro-3-hydroxy-3-methylbutan-2-yl)-2,3-dihydropyridazine-4-carboxamide] | 2.54 | > 20000 |
| O=C(N[C@@H]1CCCC[C@@H]1O)c1cc(-c2ccc(Cl)cc2)nn(-c2cccnc2)c1=O (relative stereo) [Example 133, 6-(4-Chlorophenyl)-N-[(cis)-2-hydroxycyclohexyl]-3-oxo-2-(pyridin-3-yl)-2,3-dihydropyridazine-4-carboxamide] | 7.52 | > 20000 |
| O=C(N[C@@H]1CSC[C@@H]1O)c1cc(-c2ccc(C(F)(F)F)cc2)nn(-c2cccnc2)c1=O (relative stereo) [Example 290, N-cis-4-Hydroxytetra-hydrothiophen-3-yl-3-oxo-2-(pyridin-3-yl)-6-[4-(trifluoromethyl)phenyl]-2,3-dihydropyridazine-4-carboxamide] | 2.82 | > 20000 |
| O=C(N[C@H]1CCCC(F)(F)[C@@H]1O)c1cc(-c2ccc(Cl)cc2)nn(-c2cccnc2)c1=O (racemic) [Example 143, 6-(4-Chlorophenyl)-N-[(trans)-3,3-difluoro-2-hydroxycyclohexyl]-3-oxo-2-(pyridin-3-yl)-2,3-dihydropyridazine-4-carboxamide] | 9.61 | > 20000 |
| COC[C@@H](CO)NC(=O)c1cc(-c2ccc(Cl)cc2)nn(-c2cnn(C)c2)c1=O [Example 30, 6-(4-Chlorophenyl)-N-[(2R)-1-hydroxy-3-methoxypropan-2-yl]-2-(1-methyl-1H-pyrazol-4-yl)-3-oxo-2,3-dihydropyridazine-4-carboxamide] | 60.8 | > 20000 |
| O=C(NC(CO)CO)c1cc(-c2ccc(Cl)cc2)nn(-c2cncc(F)c2)c1=O [Example 84, 6-(4-Chlorophenyl)-N-(1,3-dihydroxypropan-2-yl)-2-(5-fluoropyridin-3-yl)-3-oxo-2,3-dihydropyridazine-4-carboxamide] | 163 | > 20000 |
| Cn1cc(-n2nc(-c3ccc(C(F)(F)F)cc3)cc(C(=O)NC[C@H](O)C(F)F)c2=O)cn1 [Example 219, N-[(2S)-3,3-Difluoro-2-hydroxypropyl]-2-(1-methyl-1H-pyrazol-4-yl)-3-oxo-6-[4-(trifluoromethyl)phenyl]-2,3-dihydropyridazine-4-carboxamide] | 3.21 | > 20000 |
| Cn1cc(-n2nc(-c3ccc(Cl)cc3)cc(C(=O)NC(CO)CO)c2=O)cn1 [Example 31, 6-(4-Chlorophenyl)-N-(1,3-dihydroxypropan-2-yl)-2-(1-methyl-1H-pyrazol-4-yl)-3-oxo-2,3-dihydropyridazine-4-carboxamide] | 244 | > 20000 |
| O=C(NC(CO)C1CC1)c1cc(-c2ccc(Cl)cc2)nn(-c2cncc(F)c2)c1=O (racemic) [Example 97, 6-(4-Chlorophenyl)-N-[(1RS)-1-cyclopropyl-2-hydroxyethyl]-2-(5-fluoropyridin-3-yl)-3-oxo-2,3-dihydropyridazine-4-carboxamide] | 7.06 | > 20000 |
| COC[C@H](CO)NC(=O)c1cc(-c2ccc(Cl)cc2)nn(-c2cccnc2)c1=O [Example 74, (+)-6-(4-Chlorophenyl)-N-[(2S)-1-hydroxy-3-methoxypropan-2-yl]-3-oxo-2-(pyridin-3-yl)-2,3-dihydropyridazine-4-carboxamide] | 152 | > 20000 |
| O=C(N[C@H](CO)CF)c1cc(-c2ccc(C(F)(F)F)cc2)nn(-c2cnsc2)c1=O [Example 203, N-[(2R)-1-Fluoro-3-hydroxypropan-2-yl]-3-oxo-2-(1,2-thiazol-4-yl)-6-[4-(trifluoromethyl)phenyl]-2,3-dihydropyridazine-4-carboxamide] | 0.852 | > 20000 |
| O=C(NC[C@H](O)CF)c1cc(-c2ccc(C(F)(F)F)cc2)nn(-c2cccnc2)c1=O [Example 255, N-[(2S)-3-Fluoro-2-hydroxypropyl]-3-oxo-2-(pyridin-3-yl)-6-[4-(trifluoromethyl)phenyl]-2,3-dihydropyridazine-4-carboxamide] | 25.8 | > 20000 |
